Test results: patent US4273775A, “Hydantoin derivatives, anti-diabetic compositions thereof, and method of use thereof” (Pfizer Inc., priority 1980, dated 1981)

Tests used:
[1] = test system: sorbitol accumulation in the sciatic nerve of streptozotocinized rats; assay: inhibition of sorbitol accumulation in the sciatic nerve of streptozotocinized (diabetic) rats; assay type: in vivo; details: measured 27 hours after induction of diabetes, vs untreated
Experimental: The activity of the compounds of the present invention, as agents for the control of chronic diabetic complications, is determined by their ability to successfully pass one or more of the following standard biological and/or pharmacological tests, viz., (1) measuring their ability to inhibit the enzyme activity of isolated aldose reductase; (2) measuring their ability to reduce or inhibit sorbitol accumulation in the sciatic nerve of acutely streptozotocinized (i.e., diabetic) rats; (3) measuring their ability to reverse already-elevated sorbitol levels in the sciatic nerve and lens of chronic streptozotocin-induced diabetic rats; (4) measuring their ability to prevent or inhibit galactitol formation in the lens of acutely galactosemic rats, and (5) measuring their ability to delay cataract formation and reduce the severity of lens opacities in chronic galactosemic rats. The following tetrahydroquinoline-derived spiro-hydantoin compounds of Examples 1 and 3-4, respectively, were tested for their ability to reduce or inhibit sorbitol accumulation in the sciatic nerve of streptozotocinized (i.e., diabetic) rats by the procedure essentially described in U.S. Pat. No. 3,821,383. In the present study, the amount of sorbitol accumulation in the sciatic nerves was measured 27 hours after induction of diabetes. The compounds were administered orally at the dose levels indicated at 4, 8 and 24 hours following the administration of streptozotocin. The results obtained in this manner are presented below in terms of percent inhibition (%) afforded by the test compound as compared to the case where no compound was administered (i.e., the untreated animal where sorbitol levels normally rise from approximately […]. tissue to as high as 400 mM/g. tissue in the 27-hour test period): […]

[2] = test system: sorbitol levels in diabetic rats; assay: control (inhibition) of the formation of sorbitol levels in diabetic rats, oral; assay type: in vivo; details: 5.0 mg./kg. to 25 mg./kg.
Source text: As previously indicated, the tetrahydroquinoline-derived spiro-hydantoin compounds of this invention are all readily adapted to therapeutic use as aldose reductase inhibitors for the control of chronic diabetic complications, in view of their ability to reduce lens sorbitol levels in diabetic subjects to a statistically significant degree. […] The other compounds of this invention also cause similar results. Furthermore, all the herein described compounds of this invention can be administered by either the oral or parenteral routes of administration, for the present purposes at hand, without causing any significant untoward pharmacological side reactions to occur in the subject to whom they are so administered. In general, these compounds are ordinarily administered in dosages ranging from about 0.25 mg. to about 25 mg. per kg. of body weight per day, although variations will necessarily occur depending upon the weight and condition of the subject being treated and the particular route of administration chosen.

[3] = 5.0 mg./kg. orally at 4, 8 and 24 hours after streptozotocin

| Structure (SMILES) | Percent Inhibition (%) of sorbitol accumulation in sciatic nerve [1, 3] [%] | Percent Inhibition (%) of sorbitol accumulation in sciatic nerve ([1]; 10 mg./kg. orally at 4, 8 and 24 hours after streptozotocin) [%] | control (i.e., inhibit) the formation of sorbitol levels in diabetic rats [2] |
| --- | --- | --- | --- |
| O=C1NC(=O)C2(CCNc3cc(Cl)ccc32)N1 (stereo not shown) [Product of Example 3, 7'-chloro-1',2',3',4'-tetrahydro-spiro-[imidazolidine-4,4'-quinoline]-2,5-dione] | 23 |  |  |
| CN1CCC2(NC(=O)NC2=O)c2ccccc21.Cl (stereo not shown) [Product of Example 1, 1'-methyl-1',2',3',4'-tetrahydro-spiro-[imidazolidine-4,4'-quinoline]-2,5-dione hydrochloride] | 19 |  |  |
| O=C1NC(=O)C2(CCNc3ccc(Cl)cc32)N1 (stereo not shown) [Product of Example 4, 6'-chloro-1',2',3',4'-tetrahydro-spiro-[imidazolidine-4,4'-quinoline]-2,5-dione] |  | 80 | consistently control (i.e., inhibit) the formation of sorbitol levels in diabetic rats to a significantly high degree |
